Publication PMC6272390, “Xanthones from the Leaves of Garcinia cowa Induce Cell Cycle Arrest, Apoptosis, and Autophagy in Cancer Cells” (Molecules, 2015)

How the values were obtained:
[1] = test system: HeLa cells; assay: Flow cytometry analysis of apoptosis and cell cycle arrest (PI staining); format: cell-based, human; conditions: 24 h, FACS
Experimental: Figure 3 Effects of 1, 5, 16, and 17 on cell cycle and apoptosis. HeLa cells were treated with indicated chemicals. After 24 h of treatment, the cells were harvested, fixed in 70% EtOH, and stained with PI. The cell cycle and apoptosis rate were detected by FACS. Etoposide is used as positive control; (A) Cell cycle attribution of HeLa cells under different concentration treatment; (B) Apoptotic rates were acquired from Sub-G1 fraction from A.
Hypodiploid DNA and cell cycle arrest were evaluated as described previously. Briefly, after treatment of HeLa cancer cells with vehicle (0.1% DMSO) or test compound at the indicated concentrations and times, the cells were harvested by trypsinization and fixed with 70% (v/v) alcohol at 4 °C for 30 min. After washing with PBS, RNase (10 µg/mL) was added and incubated for 15 min at 37 °C to eliminate RNA interference. The cells were then treated with propidium iodide (PI) for another 30 min. The cells were washed, and the DNA content determined using FACSCalibur.

[2] = test system: HeLa, PANC-1, and A549; assay: Cytotoxicity against cell line panel (summary statements); format: cell-based; conditions: Homo sapiens; summary of Table 2; cell line not specified; read-out: Inhibition on cell viability, IC50
Experimental: (§1) The CCK-8 assay was used to determine cell viability. Test samples were dissolved in dimethyl sulfoxide (DMSO) to make stock solutions and further diluted in culture medium for assays. Human cancer cell lines (HeLa, PANC-1, and A549) were cultured in RPMI 1640, DMEM or DMEM/F12 (1:1) medium containing 10% fetal bovine serum. Cells were maintained at 37 °C in a humidified environment under 5% CO2. Cell proliferation assays were performed as previously described. Briefly, each cell line was seeded in a 96-well tissue culture plate at a predetermined density in 180 µL of complete medium, attached overnight and treated with test compound for 72 h. Then the medium was discarded and replaced with 10% CCK-8 in complete medium and the plates incubated for another 2 h. OD450 was measured with a SpectraMAX 190 spectrophotometer (MDS, Sunnyvale, CA, USA). Background absorbance was subtracted for all wells. Inhibition rate (IR) was determined. IR (%) = (ODDMSO − ODcompound)/ODDMSO × 100%.

[3] = test system: HeLa; assay: CCK-8 cytotoxicity assay, HeLa; format: cell-based; conditions: Homo sapiens, CCK-8, 72 h treatment
Experimental: as §1

[4] = test system: PANC-1; assay: CCK-8 cytotoxicity assay, PANC-1; format: cell-based; conditions: Homo sapiens, CCK-8, 72 h treatment
Experimental: as §1

[5] = test system: A549; assay: CCK-8 cytotoxicity assay, A549; format: cell-based; conditions: Homo sapiens, CCK-8, 72 h treatment
Experimental: as §1

[6] = CCK-8 cytotoxicity assay, immortalized HL7702 normal liver cells; format: cell-based; conditions: immortalized HL-7702 normal liver cells; CCK-8, 72 h treatment; normal human liver cells, selectivity
[7] = test system: HeLa cells (PARP, caspase-3, LC3B, p62); assay: Western blot of apoptosis and autophagy related proteins; format: cell-based, human; conditions: 24 h
Experimental: Figure 4 Effects of 1, 5, 16, and 17 on apoptosis and autophagy related proteins. Western blots of p62, LC3B, PARP, Caspase 3, and GAPDH of HeLa cells after 24 h treatment with 1, 5, 16, and 17. Etoposide was used as positive control.
Cell lysate was prepared in RIPA buffer and quantified by the bicinchoninic acid (BCA) method (Pierce, Rockford, IL, USA). Thirty micrograms of protein per sample was loaded onto a 4%~12% NuPAGE® Novex SDS gel. Protein was transferred using an iBlot® dry blotting device onto nitrocellulose membranes. After blocking nonspecific binding with TBS/Tween20 (0.1%) (TBS/T) containing 5% non-fat milk for 1 h at room temperature, the membrane was incubated in LC3B (Sigma, L7543), SQSTM1/p62 (MBL, PM045), PARP (CST #9542P, Cell Signaling Technology, Shanghai, China), or caspase-3 (CST #9662P, Cell Signaling Technology) (1:1000 in TBS/T containing 3% bovine serum albumin (BSA) in all cases) with gentle shaking at 4 °C overnight. Membranes were washed three times with TBS/T to remove unbound antibody and then incubated with secondary antibody (HRP-conjugated goat anti-mouse IgG or goat anti-rabbit IgG (1:5000) for 1 h at room temperature. Protein bands were visualized with an enhanced chemiluminescence kit (ECL, Pierce).

[8] = test system: HeLa cells stably expressing GFP-LC3; assay: GFP-LC3 puncta imaging; format: cell-based, human; conditions: HeLa-GFP-LC3 cells, 10, 20 µM, 24 h, confocal images
Experimental: Figure 5 Xanthone V1 (17) induces GFP-LC3 puncta formation in HeLa cells. HeLa cells stably expressing GFP-LC3 were seeded in a 96-well dish and treated with 10, 20 µM 17 for 24 h. (A) The number of GFP-LC3 puncta in each samples were calculated by Columbus software. The number was averaged of cells from three wells; (B) The images of GFP-LC3 puncta after 10, 20 µM treatment Xanthone V1 were acquired by an Opera (GFP ex and em) with a 40×-H2O objective. Left Panel: the original GFP-LC3 puncta; Right panel: the spots were auto-analyzed by Columbus software.
HeLa cells stably expressing GFP-LC3 were generated as previously described. Briefly, HeLa cells were transfected with pEGFP-LC3 plasmid using Lipofectamine 2000 (11668-019, Invitrogen, Carlsbad, CA, USA). One day after transfection, the cells were treated with 800 μg/mL G418 for 7 days. Surviving cells (termed HeLa-GFP-LC3 below) were continually cultured with 800 μg/mL G418. HeLa-GFP-LC3 cells were seeded in a 96-well plate overnight (clear bottom, black, Perkin-Elmer, Waltham, MA, USA). The cells were then treated with test compounds in triplicate. After 48 h, the cells were fixed with 4% paraformaldehyde and washed three times with PBS. […] The data were analyzed using Columbus 2.3 software (Perkin-Elmer). To quantify GFP-LC3 spots, the following procedures were performed: 1. […]

CC(C)=CCc1c(O)c(O)c2oc3c(CC=C(C)C)c(O)ccc3c(=O)c2c1O [Compound 1, 1,3,4,6-tetrahydroxy-2,5-di(3-methylbut-2-enyl)-xanthone]
Cell cycle arrest phase [1]: at the G2/M phase
IC50 [2]: < 10 µM
IC50 [3]: 8.09 ± 0.78 µM
IC50 [4]: 14.8 ± 8.68 µM
IC50 [5]: 12.6 ± 4.3 µM
IC50 at 72 h [6]: 11 ± 4.36 µM

CC(C)=CCc1c2c(c3oc4c(O)c(O)ccc4c(=O)c3c1O)C=CC(C)(C)O2 [Compound 5, 1,5,6-trihydroxy-2-prenyl-6′,6′-dimethyl-2H-pyrano(2′,3′:3,4)xanthone]
Cell cycle arrest phase [1]: cell cycle arrest at the S phase in a dose-dependent fashion
IC50 [2]: < 10 µM
IC50 [3]: 7.06 ± 0.71 µM
IC50 [4]: 9.32 ± 4.58 µM
IC50 [5]: 8.19 ± 0.99 µM
PARP cleavage [7]: activated PARP cleavage
IC50 at 72 h [6]: 10.5 ± 4.12 µM

C=C(C)C(O)C[C@H](C[C@@]12C[C@@H](CC=C(C)C)C(C)(C)[C@@](CC=C(C)C)(C(=O)C(C(=O)c3ccc(O)c(O)c3)=C1O)C2=O)C(=C)C (stereo partly shown) [Compound 8, garcimultiflorone E]
IC50 [2]: < 10 µM
IC50 [3]: 17.6 ± 1.45 µM
IC50 [4]: 17.7 ± 1.56 µM
IC50 [5]: 7.57 ± 0.57 µM
IC50 at 72 h [6]: 7.34 ± 0.65 µM

C=C(C)C(CC=C(C)C)C[C@@]12C[C@@H](CC=C(C)C)C(C)(C)[C@@](CC=C(C)C)(C1=O)c1oc3cc(O)c(O)cc3c(=O)c1C2=O (stereo partly shown) [Compound 15, symphonone H]
IC50 [2]: < 10 µM
IC50 [3]: 9.83 ± 0.61 µM
IC50 [4]: 11.2 ± 4.89 µM
IC50 [5]: 6.27 ± 0.71 µM
IC50 at 72 h [6]: 3.96 ± 2.38 µM

CC1(C)C=Cc2c(cc3oc4c(O)c(O)ccc4c(=O)c3c2O)O1 [Compound 16, jacareubin]
Cell cycle arrest phase [1]: at the G2/M phase
Induction of apoptosis (Sub-G1 fraction) [1]: induced apoptosis
IC50 [2]: < 10 µM
IC50 [3]: 1.09 ± 0.67 µM
IC50 [4]: 10.1 ± 7.91 µM
IC50 [5]: 6.9 ± 2.23 µM
PARP cleavage [7]: activated PARP cleavage
IC50 at 72 h [6]: 5.5 ± 1.79 µM

CC(C)=CCc1c2c(c(O)c3c(=O)c4ccc(O)c(O)c4oc13)C=CC(C)(C)O2 [Compound 17, xanthone V1]
GFP-LC3 puncta formation [8]: an increase in GFP-LC3 puncta was observed
Cell cycle arrest phase [1]: at the G1 phase
Induction of apoptosis (Sub-G1 fraction) [1]: induced apoptosis
IC50 [2]: < 10 µM
IC50 [3]: 4.71 ± 0.52 µM
IC50 [4]: 6.56 ± 2.55 µM
IC50 [5]: 11.8 ± 6.29 µM
Conversion of LC3-I to LC3-II [7]: increased the conversion of LC3-I to LC3-II
PARP cleavage [7]: activated PARP cleavage
p62 level [7]: p62 reduction
IC50 at 72 h [6]: 9.5 ± 3.74 µM

COc1cc([C@@H]2c3cc4c(cc3[C@@H](O[C@@H]3O[C@@H]5CO[C@@H](C)O[C@H]5[C@H](O)[C@H]3O)[C@H]3COC(=O)[C@H]23)OCO4)cc(OC)c1O [Etoposide, reference compound]
IC50 [3]: 2.91 ± 0.16 µM
IC50 [4]: 22.8 ± 1.93 µM
IC50 [5]: 1.31 ± 0.09 µM
IC50 at 72 h [6]: 1.42 ± 0.13 µM
